We go through seven compounds from ChEMBL document CHEMBL1137996, “Design, synthesis, and activity of 4-quinolone and pyridone compounds as nonthiol-containing farnesyltransferase inhibitors” (Bioorg Med Chem Lett, 2004).

Molecules are shown by their SMILES.

Experiment [1] concerns the target Protein farnesyltransferase (Bos taurus, UniProt P29702+P49355). Nature of the experiment: Inhibition of Bovine farnesyltransferase (FTase). The experiment is classed as protein-complex assay.
Experiment [2] addresses T1, Protein farnesyltransferase (Mus musculus, UniProt Q61239+Q8K2I1). The experiment is described as follows: Inhibition of Ras farnesylation in H-Ras transformed NIH3T3 cells. It counts as functional, cell-based.
Experiment [3] has as its target Geranylgeranyl transferase type I (Bos taurus, UniProt P29702+Q5EAD5). The experiment is described as follows: Inhibition of Bovine geranylgeranyltransferase (GGT). The experiment is classed as protein-complex assay.
The target of experiment [4] is T1, Protein farnesyltransferase. The experiment is described as follows: Inhibition of Ras farnesylation in H-Ras transformed NIH3T3 cells at 100 nM. The experiment is classed as functional, cell-based.

With `NC(=O)N1CCC(CC(=O)N2CCC([C@H]3c4ncc(Br)cc4CCc4cc(Cl)cc(Br)c43)CC2)CC1` [LONAFARNIB], the IC50 in experiment [1] was 8.3 nM; in experiment [3], over 10000 nM. In experiment [2], this compound registered an EC50 of 100 nM.
`Cn1cncc1C(OCc1cc(=O)c(C#N)cn1-c1cccc(Cl)c1)c1ccc(C#N)cc1` (stereo unspecified) came in with an Inhibition in experiment [4] (nih3t3) of 4%. Also, the IC50 in experiment [1] is 12 nM; in experiment [3], over 10000 nM.
For `Cn1cncc1C(NC(=O)c1cn(C)c(=O)cc1-c1cccc(Cl)c1)c1ccc(C#N)cc1` (stereo unspecified), the IC50 in experiment [1] was 685 nM. That is a sub-micromolar value.
On to `N#Cc1ccc(Cn2cncc2CNCc2cc(=O)c(C#N)cn2-c2cccc(Cl)c2)cc1`, for which the values for the IC50 in experiment [1] and in experiment [3] were 7.9 nM and over 10000 nM, respectively.
`Cn1cncc1[C@@](N)(c1ccc(Cl)cc1)c1ccc2c(c1)c(-c1cccc(Cl)c1)cc(=O)n2C` [TIPIFARNIB] gave an EC50 in experiment [2] (nih3t3) of 1.6 nM. This counts as single-digit nanomolar.
`Cn1c(CNCc2cncn2Cc2ccc(C#N)cc2)c(-c2cccc(Cl)c2)cc(C#N)c1=O` displayed an Inhibition in experiment [4] of 21%. Also, the IC50 in experiment [1] is 17 nM; in experiment [3], over 10000 nM.
In the same order, the values of `Cn1cncc1C(O)(c1ccc(Cl)cc1)c1ccc2c(=O)c(C#N)cn(-c3cccc(Cl)c3)c2c1` (stereo unspecified) are 51%, 12 nM and 16000 nM.
